According to ChEMBL document CHEMBL2151024, “Synthesis and Biological Evaluation of a Biotinylated Paclitaxel With an Extra-Long Chain Spacer Arm” (ACS Med Chem Lett, 2012):
Activity calls are given as the source filed them. No cut-off for these calls is given here.

Assays:
[1] = target: Tubulin (Sus scrofa, UniProt P02554+P02550); assay: Induction of porcine brain tubulin polymerization after 20 mins by Bradford assay
[2] = Stabilization of microtubule using Cy3-streptavidin-tagged compound by fluorescence microscopy
[3] = Stabilization of microtubule by fluorescence microscopy

| SMILES | EC50 [1] | Activity [2] | Activity [3] |
| --- | --- | --- | --- |
| CC(=O)O[C@H]1C(=O)[C@]2(C)[C@@H](OC(=O)CCNC(=O)CCCCCNC(=O)CCCCCNC(=O)CCCC[C@@H]3SC[C@@H]4NC(=O)N[C@@H]43)C[C@H]3OC[C@@]3(OC(C)=O)[C@H]2[C@H](OC(=O)c2ccccc2)[C@]2(O)C[C@H](OC(=O)[C@H](O)[C@@H](NC(=O)c3ccccc3)c3ccccc3)C(C)=C1C2(C)C | 680 nM | Active | Active |
| CC(=O)O[C@H]1C(=O)[C@@]2(C)[C@H]([C@H](OC(=O)c3ccccc3)[C@]3(O)C[C@H](OC(=O)[C@H](O)[C@@H](NC(=O)c4ccccc4)c4ccccc4)C(C)=C1C3(C)C)[C@]1(OC(C)=O)CO[C@@H]1C[C@@H]2O [PACLITAXEL] | 520 nM | – | Active |
